Several values for one entry are separate records, joined by “and”; a condition that tells them apart may be missing. Equal values may be shown once. Read-outs that look alike come from different tables or passages of the source. One block for each compound: values may come before it.
Columns and labels:
[1] = in vivo
[2] = test system: rabbit coronary microvessel endothelium; settings: cited from earlier work
[3] = test system: New Zealand White rabbits; settings: rabbit, in vivo
[4] = human, in vivo, 1 mg; cited from earlier work
[5] = in vivo; settings: rabbit
[6] = test system: New Zealand White (NZW) rabbits; settings: rabbit, in vivo
[7] = test system: New Zealand White rabbits; settings: rabbit, in vivo; remark: listed apart in the source
[8] = rabbit, in vivo, 1 mg; cited from earlier work

Tmax of DEX in plasma ([1]; rabbit): 30 min
Structure (SMILES): C[C@@H]1C[C@H]2[C@@H]3CCC4=CC(=O)C=C[C@]4(C)[C@@]3(F)[C@@H](O)C[C@]2(C)[C@@]1(O)C(=O)CO [DEX, dexamethasone]
concentration that can inhibit prostaglandin release [2]: 10^−7 M and ~40 ng/mL

corneal surface covered by corneal haze lesion ([3]; New Zealand White, 4 weeks): about 40%
typical conjunctival injection score immediately after treatment ([3]; New Zealand White, 12 weeks): 1 or <1
Ocular Histopathology [3]: NSF
histopathology of eyes [3]: morphologically normal
nature of ocular findings (conjunctival injection, discharge, corneal haze) in treated eyes [3]: transient and mild in nature
Tmax [5]: 5 min
half-life of the drug in the rabbit [1]: 120 to 180 min
IOP increase (mild effect) ([6]; both, New Zealand White): 5-8 mmHg
IOP increase (absolute value) compared to control eye change, immediately after application ([6]; male, New Zealand White): 2 mmHg
IOP increase (absolute value) compared to control eye change, immediately after treatment ([6]; male, New Zealand White): 8 mmHg
change in IOP within one hour after treatment ([6]; male, New Zealand White): 4 mmHg
effect on the IOP of the treated eye (statistical analysis) [6]: no effect
time for IOP to return to a normal range after treatment [6]: within one half hour
time for IOP to return to below baseline after treatment [6]: within one half hour
time for IOP to return to normal after treatment [6]: within one half hour
IOP effects related to dosing [7]: no IOP effects related to dosing
Structure (SMILES): C[C@@H]1C[C@H]2[C@@H]3CCC4=CC(=O)C=C[C@]4(C)[C@@]3(F)[C@@H](O)C[C@]2(C)[C@@]1(O)C(=O)COP(=O)(O)O [DSP, dexamethasone sodium phosphate]
histopathology finding [3]: mild chronic inflammation at the limbus of the cornea
Cmax after IV injection [4]: 10.5 ng/mL
Cmax after IV injection [8]: 786 ng/mL
